Structures can show the parent of a compound that is named as a salt.
Biological target: T1, human GlyT-1b transporter (Homo sapiens, UniProt P48067)
T1 construct: expressed in transfected cells; host or cells: CHO cells, stably transfected, pcDNA3 expression construct
T1 sequence (P48067 1-652 isoform P48067-3): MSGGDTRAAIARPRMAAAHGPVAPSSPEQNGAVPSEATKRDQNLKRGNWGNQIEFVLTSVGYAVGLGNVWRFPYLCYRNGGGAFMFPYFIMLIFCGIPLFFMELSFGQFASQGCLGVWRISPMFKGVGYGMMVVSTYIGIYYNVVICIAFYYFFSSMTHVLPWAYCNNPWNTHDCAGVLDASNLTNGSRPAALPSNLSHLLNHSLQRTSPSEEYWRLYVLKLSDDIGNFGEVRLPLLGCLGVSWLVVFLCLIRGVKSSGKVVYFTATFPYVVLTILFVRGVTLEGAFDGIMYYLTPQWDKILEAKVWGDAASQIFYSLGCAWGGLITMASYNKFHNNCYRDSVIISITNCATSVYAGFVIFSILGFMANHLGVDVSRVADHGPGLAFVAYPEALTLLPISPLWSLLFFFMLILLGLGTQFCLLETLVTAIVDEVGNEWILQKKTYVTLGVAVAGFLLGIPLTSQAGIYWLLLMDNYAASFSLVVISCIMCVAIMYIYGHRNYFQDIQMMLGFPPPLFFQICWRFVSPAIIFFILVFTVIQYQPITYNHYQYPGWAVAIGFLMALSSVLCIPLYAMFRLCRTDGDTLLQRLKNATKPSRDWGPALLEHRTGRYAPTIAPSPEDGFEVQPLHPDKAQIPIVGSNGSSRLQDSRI
Assay: glycine uptake in CHO cells heterologously expressing the human GlyT-1b transporter
Format: cell-based
Conditions: [3H]glycine uptake, CHO cells stably expressing hGlyT-1b, 5 min preincubation, 10 min uptake, 37° C.
Procedure: Method for determination of glycine uptake in CHO cells heterologously expressing the human GlyT-1b transporter.
cDNA was generated by PCR according to the method described by Kim, K.-M. et al. Mol. Pharmacol. 1994, 45, 608-617. Sequence was verified by dideoxy sequencing using the ALF DNA sequencer™ (Pharmacia) and cloned into the expression construct pcDNA3 (Invitrogen).
Transfection of hGlyT-1b into CHO cells was performed using a standard calcium phosphate technique as described by Sambrook, J. et al. (1989) in Molecular Cloning: A Laboratory Manual, Cold Spring Harbor Laboratory, Cold Spring Harbor, N.Y.
Stably transfected cells were selected for 1 week in growth medium containing 1 mg.cm^−3 Geneticin. Individual clones were picked for further analysis and positives passaged routinely as described below.
Cells stably expressing the hGlyT-1b gene were cultured at 37° C. in a 5% CO2 atmosphere in DMEM—NUT.MIX. F12 with Glutamax-1 (Gibco) containing Geneticin (0.5 mg.cm^−3, Gibco) and supplemented with 10% Fetalclone II (Hyclone). Maintenance culture was carried out in standard 80 cm^2 ventilated flasks (2 m^−6 filter, Nunc) and cells were subcultured by trypsinisation (Sigma) when confluent.
Cells for uptake studies were plated in 96 well plates (17,000 cells per well) in the absence of Geneticin and cultured for 48 h before use. To measure glycine transport, cells were washed twice with Hanks' balanced salt solution (HBSS) pre-warmed to 37° C. and excess fluid removed before addition of test compounds dissolved in 0.200 cm^3 HBSS. Plates were incubated at 37° C. for 5 minutes before addition of [^3H]glycine (0.050 cm^3, 150 M^−6, 248 Bq.nmol^−1, NEN) and incubation continued for a further 10 minutes. Uptake was terminated by washing cells with ice-cold HBSS before removal of excess fluid and addition of 0.200 cm^3 scintillation cocktail to each well. Plates were sealed with adhesive film, shaken to ensure samples were homogenous before scintillation counting in a plate counter.
Data were analysed using standard curve fitting procedures to produce a pIC50 value for active compounds (where pIC50 is the negative logarithm of the concentration of test compound causing 50% inhibition of uptake).
For `COc1ccc2c(c1)CC[C@H](CN(C)CC(=O)[O-])[C@@H]2c1ccccc1.[Li+]` (relative stereo) [Example (−)-4, (−)-Lithium cis-N-methyl-N-(6-methoxy-1-phenyl-1,2,3,4-tetrahydronaphthalen-2-ylmethyl) aminomethylcarboxylate], the “pIC50, Inhibition of glycine transport by hGlyT-1” value was 6.8.

Same assay, conditions: [3H]glycine uptake, CHO cells stably expressing hGlyT-1b, 5 min preincubation, 10 min uptake, 37° C.; read-out: pIC50, Inhibition of glycine transport by hGlyT-1 (converted)
`CN(CC(=O)O)CC1CCc2cc(OCC(C)(C)C)ccc2C1c1ccccc1` (single isomer, unassigned; (-)) [Example (−)-34, (−)-Lithium cis-N-methyl-N-[1-phenyl-6-(2,2-dimethylpropyloxy)-1,2,3,4-tetrahydronaphthalen-2-ylmethyl] aminomethylcarboxylate] showed an IC50 of 251 nM. `CN(CC(=O)O)CC1CCc2cc(C(F)(F)F)ccc2C1c1ccc(F)cc1` (racemic) [(+/−)-8, Lithium cis-N-methyl-N-[1-(4-fluorophenyl)-6-trifluoromethyl-1,2,3,4-tetrahydronaphthalen-2-ylmethyl] aminomethylcarboxylate] showed an IC50 of 126 nM. Compound `Cc1ccc2c(c1)CCC(CN(C)CC(=O)O)C2c1ccccc1` (single isomer, unassigned; (-)) [Example (−)-23, (−)-Sodium cis-N-methyl-N-(6-methyl-1-phenyl-1,2,3,4-tetrahydronaphthalen-2-ylmethyl) aminomethylcarboxylate] has an IC50 of 126 nM. With `CN(CC(=O)O)CC1CCc2cc(C(F)(F)F)ccc2C1c1ccc(F)cc1` (single isomer, unassigned; (-)) [Example (−)-8, (−)-Lithium N-methyl-N-[1-(4-fluorophenyl)-6-trifluoromethyl-1,2,3,4-tetrahydronaphthalen-2-ylmethyl] aminomethylcarboxylate] the IC50 was 50.1 nM. In the case of `CN(CC(=O)O)CC1CCc2cc(Oc3ccccc3)ccc2C1c1ccccc1` (racemic) [(+/−)-17, Lithium cis-N-methyl-N-(6-phenoxy-1-phenyl-1,2,3,4-tetrahydronaphthalen-2-ylmethyl) aminomethylcarboxylate], the IC50 is reported as 158 nM. `Cc1ccc2c(c1)CCC(CN(C)CC(=O)O)C2c1ccccc1` (racemic) [(+/−)-23, Lithium cis-N-methyl-N-(6-methyl-1-phenyl-1,2,3,4-tetrahydronaphthalen-2-ylmethyl) aminomethylcarboxylate] showed an IC50 of 251 nM. `COc1ccc2c(c1)CCC(CN(C)CC(=O)O)C2c1ccccc1` (racemic) [(+/−)-4, Lithium cis-N-methyl-N-(6-methoxy-1-phenyl-1,2,3,4-tetrahydronaphthalen-2-ylmethyl) aminomethylcarboxylate] showed an IC50 of 501 nM. `CN(CC(=O)O)C[C@H]1CCc2cc(OCC(C)(C)C)ccc2[C@H]1c1ccccc1.Cl` (racemic) [(+/−)-34, cis-N-Methyl-N-[6-(2,2-dimethylpropyloxy)-1-phenyl-1,2,3,4-tetrahydronaphthalen-2-ylmethyl] aminomethylcarboxylic acid hydrochloride] showed an IC50 of 251 nM. `CN(CC(=O)O)CC1CCc2cc(Oc3ccccc3)ccc2C1c1ccccc1` (single isomer, unassigned; (-)) [Example (−)-17, (−)-Sodium cis-N-methyl-N-(6-phenoxy-1-phenyl-1,2,3,4-tetrahydronaphthalen-2-ylmethyl) aminomethylcarboxylate] gave an IC50 of 100 nM.

System: not given
Assay: not given
Conditions: not given
With `Cc1ccc2c(c1)CCC(CN(C)CC(=O)O)C2c1ccccc1` (racemic) (as salt: salt) [(+/−)-23, Lithium cis-N-methyl-N-(6-methyl-1-phenyl-1,2,3,4-tetrahydronaphthalen-2-ylmethyl) aminomethylcarboxylate] the melting point was 135 to 138 °C. Work on `CN(CC(=O)O)C[C@H]1CCc2cc(-c3ccccc3)ccc2[C@H]1c1ccccc1.Cl` (relative stereo) yielded a melting point of 210 to 221 °C. For `CN(CC(=O)O)C[C@H]1CCc2cc(OCc3ccccc3)ccc2[C@H]1c1ccccc1.Cl` (relative stereo), the melting point was 200 to 210 °C. With `CN(CC(=O)O)CC1CCc2cc(C(F)(F)F)ccc2C1c1ccc(F)cc1` (single isomer, unassigned; (-)) (as salt: salt) [Example (−)-8, (−)-Lithium N-methyl-N-[1-(4-fluorophenyl)-6-trifluoromethyl-1,2,3,4-tetrahydronaphthalen-2-ylmethyl] aminomethylcarboxylate] the melting point was 161 to 164 °C. Work on `CN(CC(=O)O)C[C@H]1CCc2cc(OCC3CC3)ccc2[C@H]1c1ccccc1.Cl` (relative stereo) yielded a melting point of 173 to 177 °C. With `CN(CC(=O)O)C[C@H]1CCc2ccccc2[C@H]1c1ccccc1.Cl` (relative stereo) the melting point was 205 to 211 °C (dec.). With `CN(CC(=O)O)C[C@H]1CCc2cc(OC3CCCCC3)ccc2[C@H]1c1ccccc1.Cl` (relative stereo) the melting point was > 210 °C (dec.). With `CN(CC(=O)O)C[C@H]1CCc2cc(C#N)ccc2[C@H]1c1ccccc1.Cl` (relative stereo) the melting point was 197 °C (dec.). In the case of `CN(CC(=O)O)CC1CCc2cc(C(F)(F)F)ccc2C1c1ccc(F)cc1` (racemic) (as salt: salt) [(+/−)-8, Lithium cis-N-methyl-N-[1-(4-fluorophenyl)-6-trifluoromethyl-1,2,3,4-tetrahydronaphthalen-2-ylmethyl] aminomethylcarboxylate], the melting point is reported as 137 to 142 °C. `COC(=O)c1ccc2c(c1)CC[C@H](CN(C)CC(=O)O)[C@@H]2c1ccccc1.Cl` (relative stereo) showed a melting point of 166 to 171 °C. Compound `CN(CC(=O)O)C[C@H]1CCc2cc(OCC(C)(C)C)ccc2[C@H]1c1ccccc1.Cl` (racemic) [(+/−)-34, cis-N-Methyl-N-[6-(2,2-dimethylpropyloxy)-1-phenyl-1,2,3,4-tetrahydronaphthalen-2-ylmethyl] aminomethylcarboxylic acid hydrochloride] has a melting point of 151 to 155 °C. With `CN(CC(=O)O)CC1CCc2cc(OCC(C)(C)C)ccc2C1c1ccccc1` (single isomer, unassigned; (-)) (as salt: salt) [Example (−)-34, (−)-Lithium cis-N-methyl-N-[1-phenyl-6-(2,2-dimethylpropyloxy)-1,2,3,4-tetrahydronaphthalen-2-ylmethyl] aminomethylcarboxylate] the melting point was 168 to 170 °C. With `COc1ccc2c(c1)CC[C@H](CN(C)CC(=O)O)[C@@H]2c1cccc(C)c1.O=C(O)C(F)(F)F` (relative stereo) the melting point was 96 to 106 °C. For `CN(CC(=O)O)CC1CCc2cc(Oc3ccccc3)ccc2C1c1ccccc1` (racemic) (as salt: salt) [(+/−)-17, Lithium cis-N-methyl-N-(6-phenoxy-1-phenyl-1,2,3,4-tetrahydronaphthalen-2-ylmethyl) aminomethylcarboxylate], the melting point was 191 to 200 °C.
